Results: PubChem BioAssay (NCI)
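Following 48 hours of exposure in 96-well plates, responses at five concentrations were used to interpolate endpoints linearly. GI50 marks 50% less growth. TGI is the concentration that stops growth completely.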

Columns and labels:
Test in all cases: NCI-60 cell line screen, 48 h
MDA-MB-435 = test system: MDA-MB-435
786-0 renal = test system: 786-0 renal
SN12C renal = test system: SN12C renal
SF-268 CNS = test system: SF-268 CNS
SF-295 CNS = test system: SF-295 CNS
HS 578T breast = test system: HS 578T breast
DU-145 prostate = test system: DU-145 prostate
COLO 205 colon = test system: COLO 205 colon
NCI-H460 lung = test system: NCI-H460 lung
MCF7 breast = test system: MCF7 breast
RPMI-8226 leukemia = test system: RPMI-8226 leukemia
T-47D breast = test system: T-47D breast
SK-MEL-2 melanoma = test system: SK-MEL-2 melanoma
BT-549 breast = test system: BT-549 breast
IGROV1 ovarian = test system: IGROV1 ovarian
OVCAR-8 ovarian = test system: OVCAR-8 ovarian
NCI-H23 lung = test system: NCI-H23 lung
PC-3 prostate = test system: PC-3 prostate
HOP-92 NSCLC = test system: HOP-92 NSCLC
HCC-2998 colon = test system: HCC-2998 colon
OVCAR-4 ovarian = test system: OVCAR-4 ovarian
SK-MEL-5 melanoma = test system: SK-MEL-5 melanoma
A498 renal = test system: A498 renal
KM12 colon = test system: KM12 colon
NCI-H226 lung = test system: NCI-H226 lung
SK-OV-3 ovarian = test system: SK-OV-3 ovarian
SW-620 colon = test system: SW-620 colon
MALME-3M melanoma = test system: MALME-3M melanoma
U251 CNS = test system: U251 CNS
A549 NSCLC = test system: A549 NSCLC
LOX IMVI melanoma = test system: LOX IMVI melanoma
MDA-MB-231 breast = test system: MDA-MB-231 breast
UACC-257 melanoma = test system: UACC-257 melanoma
M14 melanoma = test system: M14 melanoma
RXF 393 renal = test system: RXF 393 renal
SF-539 CNS = test system: SF-539 CNS
SNB-19 CNS = test system: SNB-19 CNS
CCRF-CEM leukemia = test system: CCRF-CEM leukemia
HCT-15 colon = test system: HCT-15 colon
SNB-75 CNS = test system: SNB-75 CNS
OVCAR-5 ovarian = test system: OVCAR-5 ovarian
NCI-H522 lung = test system: NCI-H522 lung
HCT-116 colon = test system: HCT-116 colon
CAKI-1 renal = test system: CAKI-1 renal
ACHN renal = test system: ACHN renal
UACC-62 melanoma = test system: UACC-62 melanoma
TK-10 renal = test system: TK-10 renal
HOP-62 NSCLC = test system: HOP-62 NSCLC
EKVX NSCLC = test system: EKVX NSCLC
HT29 colon = test system: HT29 colon
NCI/ADR-RES ovarian = test system: NCI/ADR-RES ovarian
SK-MEL-28 melanoma = test system: SK-MEL-28 melanoma
OVCAR-3 ovarian = test system: OVCAR-3 ovarian
UO-31 renal = test system: UO-31 renal
K-562 leukemia = test system: K-562 leukemia
MOLT-4 leukemia = test system: MOLT-4 leukemia

## C=C(C)[C@@H]1CC[C@@]2(C(=O)O)CC[C@]3(C)C(CCC4[C@@]5(C)CCC(OS(=O)(=O)c6ccccc6)C(C)(C)C5CC[C@]43C)C12 (stereo partly specified)
MDA-MB-435
  GI50: 4.49 µM
  TGI: 20.1 µM
786-0 renal
  GI50: 4.73 µM
  TGI: 19 µM
SN12C renal
  GI50: 4.88 µM
  TGI: 30.6 µM
SF-268 CNS
  GI50: 13.6 µM
  TGI: 51.5 µM
SF-295 CNS
  GI50: 1.93 µM
  TGI: 11.8 µM
HS 578T breast
  GI50: 8 µM
  TGI: 42.4 µM
DU-145 prostate
  GI50: 6.5 µM
  TGI: 20.8 µM
COLO 205 colon
  GI50: 5.66 µM
  TGI: 18.2 µM
NCI-H460 lung
  GI50: 3.36 µM
  TGI: 15.5 µM
MCF7 breast
  GI50: 4.4 µM
  TGI: 19.6 µM
RPMI-8226 leukemia
  GI50: 1.69 µM
  TGI: > 100 µM
T-47D breast
  GI50: 2 µM
  TGI: 17.1 µM
SK-MEL-2 melanoma
  GI50: 4.4 µM
  TGI: 16.3 µM
BT-549 breast
  GI50: 3.17 µM
  TGI: 18.7 µM
IGROV1 ovarian
  GI50: 10.4 µM
  TGI: 31.2 µM
OVCAR-8 ovarian
  GI50: 5.8 µM
  TGI: 88.7 µM
NCI-H23 lung
  GI50: 3.28 µM
  TGI: 15.5 µM
PC-3 prostate
  GI50: 1.5 µM
  TGI: 35.8 µM
HOP-92 NSCLC
  GI50: 2.47 µM
  TGI: 16.2 µM
HCC-2998 colon
  GI50: 2.28 µM
  TGI: 10.5 µM
OVCAR-4 ovarian
  GI50: 4.49 µM
  TGI: 28.5 µM
SK-MEL-5 melanoma
  GI50: 1.4 µM
  TGI: 17 µM
A498 renal
  GI50: 4.68 µM
  TGI: 20.6 µM
KM12 colon
  GI50: 3.37 µM
  TGI: 15 µM
NCI-H226 lung
  GI50: 7.07 µM
  TGI: 28.3 µM
SK-OV-3 ovarian
  GI50: 14 µM
  TGI: 44.4 µM
SW-620 colon
  GI50: 3.89 µM
  TGI: 15.2 µM
MALME-3M melanoma
  GI50: 12.2 µM
  TGI: 26 µM
U251 CNS
  GI50: 3.62 µM
  TGI: 15.7 µM
A549 NSCLC
  GI50: 2.44 µM
  TGI: 17.7 µM
LOX IMVI melanoma
  GI50: 5.99 µM
  TGI: 18.6 µM
MDA-MB-231 breast
  GI50: 8.58 µM
  TGI: 25.6 µM
UACC-257 melanoma
  GI50: 4.76 µM
  TGI: 39.6 µM
M14 melanoma
  GI50: 11.2 µM
  TGI: 25.1 µM
RXF 393 renal
  GI50: 13.8 µM
  TGI: 29.7 µM
SF-539 CNS
  GI50: 9.93 µM
  TGI: 22.4 µM
SNB-19 CNS
  GI50: 10.1 µM
  TGI: 32.7 µM
CCRF-CEM leukemia
  GI50: 5.28 µM
  TGI: > 100 µM
HCT-15 colon
  GI50: 2.93 µM
  TGI: 19.9 µM
SNB-75 CNS
  GI50: 11.5 µM
  TGI: 30.5 µM
OVCAR-5 ovarian
  GI50: 9.44 µM
  TGI: 28.7 µM
NCI-H522 lung
  GI50: 2.36 µM
  TGI: 13.2 µM
HCT-116 colon
  GI50: 2.9 µM
  TGI: 13.1 µM
CAKI-1 renal
  GI50: 2.36 µM
  TGI: 9.89 µM
ACHN renal
  GI50: 4.42 µM
  TGI: 20.6 µM
UACC-62 melanoma
  GI50: 2.55 µM
  TGI: 19.3 µM
TK-10 renal
  GI50: 3.84 µM
  TGI: 25.4 µM
HOP-62 NSCLC
  GI50: 5.15 µM
  TGI: 18.5 µM
EKVX NSCLC
  GI50: 2.58 µM
  TGI: 19.3 µM
HT29 colon
  GI50: 5.52 µM
  TGI: 18 µM
NCI/ADR-RES ovarian
  GI50: 3.52 µM
  TGI: 18 µM
SK-MEL-28 melanoma
  GI50: 9.9 µM
  TGI: 22.4 µM
OVCAR-3 ovarian
  GI50: 3.95 µM
  TGI: 14.9 µM
UO-31 renal
  GI50: 2.79 µM
  TGI: 15.9 µM

## COC(=O)c1c(O)ccc2[nH]c(C)c(C#N)c12
MDA-MB-435
  GI50: 32.9 µM
  TGI: > 100 µM
786-0 renal
  GI50: 31.6 µM
  TGI: > 100 µM
SN12C renal
  GI50: 49 µM
  TGI: > 100 µM
SF-268 CNS
  GI50: 40 µM
  TGI: > 100 µM
SF-295 CNS
  GI50: 27.4 µM
  TGI: 92.9 µM
HS 578T breast
  GI50: 31 µM
  TGI: 92.2 µM
DU-145 prostate
  GI50: > 100 µM
  TGI: > 100 µM
COLO 205 colon
  GI50: 88.5 µM
  TGI: > 100 µM
NCI-H460 lung
  GI50: 37.3 µM
  TGI: > 100 µM
MCF7 breast
  GI50: 46.3 µM
  TGI: > 100 µM
RPMI-8226 leukemia
  GI50: 27.3 µM
  TGI: > 100 µM
T-47D breast
  GI50: 44.4 µM
  TGI: > 100 µM
SK-MEL-2 melanoma
  GI50: > 100 µM
  TGI: > 100 µM
BT-549 breast
  GI50: 64 µM
  TGI: > 100 µM
IGROV1 ovarian
  GI50: 67.2 µM
  TGI: > 100 µM
OVCAR-8 ovarian
  GI50: 43.2 µM
  TGI: > 100 µM
NCI-H23 lung
  GI50: 77.1 µM
  TGI: > 100 µM
K-562 leukemia
  GI50: 55.3 µM
  TGI: > 100 µM
PC-3 prostate
  GI50: 38.7 µM
  TGI: > 100 µM
HOP-92 NSCLC
  GI50: 30.3 µM
  TGI: 91.9 µM
HCC-2998 colon
  GI50: 95.1 µM
  TGI: > 100 µM
OVCAR-4 ovarian
  GI50: > 100 µM
  TGI: > 100 µM
SK-MEL-5 melanoma
  GI50: 24.3 µM
  TGI: > 100 µM
A498 renal
  GI50: 20.7 µM
  TGI: 54.2 µM
KM12 colon
  GI50: 39.5 µM
  TGI: > 100 µM
NCI-H226 lung
  GI50: 28.5 µM
  TGI: 70.6 µM
SK-OV-3 ovarian
  GI50: 97.5 µM
  TGI: > 100 µM
MOLT-4 leukemia
  GI50: 26.7 µM
  TGI: > 100 µM
SW-620 colon
  GI50: 45.4 µM
  TGI: > 100 µM
MALME-3M melanoma
  GI50: 47.9 µM
  TGI: 94 µM
U251 CNS
  GI50: 44.8 µM
  TGI: > 100 µM
A549 NSCLC
  GI50: 41.1 µM
  TGI: > 100 µM
LOX IMVI melanoma
  GI50: 30.9 µM
  TGI: > 100 µM
MDA-MB-231 breast
  GI50: 39.9 µM
  TGI: > 100 µM
UACC-257 melanoma
  GI50: > 100 µM
  TGI: > 100 µM
M14 melanoma
  GI50: 25.9 µM
  TGI: > 100 µM
RXF 393 renal
  GI50: 22 µM
  TGI: > 100 µM
SNB-19 CNS
  GI50: 77.7 µM
  TGI: > 100 µM
HCT-15 colon
  GI50: 42.1 µM
  TGI: > 100 µM
SNB-75 CNS
  GI50: 87.9 µM
  TGI: > 100 µM
OVCAR-5 ovarian
  GI50: > 100 µM
  TGI: > 100 µM
NCI-H522 lung
  GI50: 83.4 µM
  TGI: > 100 µM
HCT-116 colon
  GI50: 22 µM
  TGI: 61.5 µM
CAKI-1 renal
  GI50: 30.4 µM
  TGI: 90.1 µM
ACHN renal
  GI50: 20.6 µM
  TGI: > 100 µM
UACC-62 melanoma
  GI50: 25.7 µM
  TGI: 90.4 µM
TK-10 renal
  GI50: 8.8 µM
  TGI: 49.2 µM
HOP-62 NSCLC
  GI50: 22.7 µM
  TGI: 81 µM
EKVX NSCLC
  GI50: 96.2 µM
  TGI: > 100 µM
HT29 colon
  GI50: 60.3 µM
  TGI: > 100 µM
NCI/ADR-RES ovarian
  GI50: > 100 µM
  TGI: > 100 µM
SK-MEL-28 melanoma
  GI50: 65.9 µM
  TGI: > 100 µM
OVCAR-3 ovarian
  GI50: 31.4 µM
  TGI: > 100 µM
UO-31 renal
  GI50: 33.9 µM
  TGI: > 100 µM
